Data: ChEMBL document CHEMBL1132484, “New alpha-substituted succinate-based hydroxamic acids as TNFalpha convertase inhibitors” (J Med Chem, 1999)
pIC50: −log10 of the molar value.

How the values were obtained:
[1] = molecular target: T1, Disintegrin and metalloproteinase domain-containing protein 17 (Homo sapiens, UniProt P78536); assay: Inhibitory activity against Tumor necrosis factor alpha-converting enzyme (TACE) in blood.; type: tissue-based
[2] = molecular target: T1, Disintegrin and metalloproteinase domain-containing protein 17; assay: Inhibition of TNF(tumor necrosis factor) in human blood; type: functional

T1 sequence (P78536 whole entry, the tested form may be a part): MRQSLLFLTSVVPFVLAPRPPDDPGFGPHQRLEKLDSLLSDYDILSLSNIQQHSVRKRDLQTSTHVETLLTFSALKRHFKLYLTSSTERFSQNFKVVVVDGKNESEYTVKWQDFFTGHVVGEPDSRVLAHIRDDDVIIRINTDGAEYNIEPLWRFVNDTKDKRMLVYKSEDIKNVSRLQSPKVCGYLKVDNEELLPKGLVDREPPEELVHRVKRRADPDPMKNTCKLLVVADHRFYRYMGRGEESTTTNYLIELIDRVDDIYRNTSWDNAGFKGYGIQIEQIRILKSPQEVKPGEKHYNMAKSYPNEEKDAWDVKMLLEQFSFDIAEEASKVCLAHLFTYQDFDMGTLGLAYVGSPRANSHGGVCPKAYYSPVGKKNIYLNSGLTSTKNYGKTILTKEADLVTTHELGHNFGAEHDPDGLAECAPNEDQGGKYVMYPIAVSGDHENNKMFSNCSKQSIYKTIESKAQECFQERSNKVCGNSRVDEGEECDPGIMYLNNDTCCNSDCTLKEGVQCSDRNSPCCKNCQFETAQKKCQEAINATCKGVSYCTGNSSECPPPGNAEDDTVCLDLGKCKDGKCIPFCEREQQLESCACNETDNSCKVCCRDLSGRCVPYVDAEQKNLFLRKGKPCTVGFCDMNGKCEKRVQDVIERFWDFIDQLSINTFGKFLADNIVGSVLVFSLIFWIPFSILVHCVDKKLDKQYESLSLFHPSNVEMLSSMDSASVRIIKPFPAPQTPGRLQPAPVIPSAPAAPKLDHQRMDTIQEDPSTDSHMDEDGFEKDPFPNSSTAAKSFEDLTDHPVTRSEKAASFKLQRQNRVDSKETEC

Compound: CNC(=O)[C@@H](NC(=O)[C@H](CC(C)C)[C@H](NCCCSC)C(=O)NO)C(C)(C)C
- pIC50 [1]: 8.89
- pIC50 [2]: 5.34

Compound: CNC(=O)[C@@H](NC(=O)[C@H](CC(C)C)[C@H](NCc1ccc2ccccc2n1)C(=O)NO)C(C)(C)C
- pIC50 [1]: 9.00
- pIC50 [2]: 5.24

Compound: CNC(=O)[C@@H](NC(=O)[C@H](CC(C)C)[C@H](NS(=O)(=O)c1ccc2c(c1)CCC(=O)N2C)C(=O)NO)C(C)(C)C
- pIC50 [1]: 8.54
- pIC50 [2]: 5.52

Compound: CNC(=O)[C@@H](NC(=O)[C@H](CC(C)C)[C@H](OCc1ccc2nc(C)nc(O)c2c1)C(=O)NO)C(C)(C)C
- pIC50 [1]: 9.37
- pIC50 [2]: 5.62

Compound: CNC(=O)[C@@H](NC(=O)[C@H](CC(C)C)[C@H](NS(=O)(=O)c1ccc2c(c1)CC(=O)N2)C(=O)NO)C(C)(C)C
- pIC50 [1]: 8.55
- pIC50 [2]: 5.82

Compound: CNC(=O)[C@@H](NC(=O)[C@H](CC(C)C)[C@H](Sc1cc(Cl)cc(Cl)c1)C(=O)NO)C(C)(C)C
- pIC50 [1]: 9.38
- pIC50 [2]: 5.31

Compound: CNC(=O)[C@@H](NC(=O)[C@H](CC(C)C)[C@H](NS(=O)(=O)/C=C/c1ccccc1)C(=O)NO)C(C)(C)C
- pIC50 [1]: 9.27
- pIC50 [2]: 6.11

Compound: CNC(=O)[C@@H](NC(=O)C(CC(C)C)C(NC(=O)c1ccccc1)C(=O)NO)C(C)(C)C (single isomer, unassigned)
- pIC50 [1]: 8.05

Compound: CNC(=O)[C@@H](NC(=O)[C@H](CC(C)C)[C@H](NC(=O)c1cccnc1)C(=O)NO)C(C)(C)C
- pIC50 [1]: 7.66

Compound: CNC(=O)[C@@H](NC(=O)C(CC(C)C)C(NS(=O)(=O)c1cc(Cl)cc(Cl)c1)C(=O)NO)C(C)(C)C (single isomer, unassigned)
- pIC50 [1]: 9.00
- pIC50 [2]: 4.95

Compound: CNC(=O)[C@@H](NC(=O)[C@H](CC(C)C)[C@H](NCc1ccc2ccccc2c1)C(=O)NO)C(C)(C)C
- pIC50 [1]: 9.24
- pIC50 [2]: 5.17

Compound: CNC(=O)[C@@H](NC(=O)C(CC(C)C)C(NS(=O)(=O)c1cnc[nH]1)C(=O)NO)C(C)(C)C (single isomer, unassigned)
- pIC50 [1]: 8.05

Compound: CNC(=O)[C@@H](NC(=O)C(CC(C)C)C(NS(=O)(=O)c1ccccc1C#N)C(=O)NO)C(C)(C)C (single isomer, unassigned)
- pIC50 [1]: 7.77

Compound: CNC(=O)[C@@H](NC(=O)[C@H](CC(C)C)[C@@H](Sc1ccccc1)C(=O)NO)C(C)(C)C
- pIC50 [1]: 9.00

Compound: CCS[C@H](C(=O)NO)[C@@H](CC(C)C)C(=O)N[C@H](C(=O)NC)C(C)(C)C
- pIC50 [1]: 8.82
- pIC50 [2]: 5.25

Compound: CNC(=O)[C@@H](NC(=O)[C@H](CC(C)C)[C@H](NC(=O)c1ccc2ccccc2c1)C(=O)NO)C(C)(C)C
- pIC50 [1]: 8.48
- pIC50 [2]: < 4.70

Compound: CNC(=O)[C@@H](NC(=O)[C@H](CC(C)C)[C@H](OCc1ccc2ccccc2c1)C(=O)NO)C(C)(C)C
- pIC50 [1]: 9.22
- pIC50 [2]: 5.14

Compound: CNC(=O)[C@@H](NC(=O)C(CC(C)C)C(OCc1cc2c(=O)[nH]c(C)nc2cc1Br)C(=O)NO)C(C)(C)C (single isomer, unassigned)
- pIC50 [1]: 9.48
- pIC50 [2]: 5.37

Compound: CNC(=O)[C@@H](NC(=O)[C@H](CC(C)C)[C@H](OCc1cccc2cccnc12)C(=O)NO)C(C)(C)C
- pIC50 [1]: 9.40
- pIC50 [2]: 5.09

Compound: CNC(=O)[C@@H](NC(=O)[C@H](CC(C)C)[C@H](OCc1ccc2oc(=O)ccc2c1)C(=O)NO)C(C)(C)C
- pIC50 [1]: 9.10
- pIC50 [2]: 5.44

Compound: CNC(=O)[C@@H](NC(=O)[C@H](CC(C)C)[C@H](NS(=O)(=O)c1cccs1)C(=O)NO)C(C)(C)C
- pIC50 [1]: 8.82
- pIC50 [2]: 5.55

Compound: CNC(=O)[C@@H](NC(=O)[C@H](CC(C)C)[C@H](OCCc1ccc2sc(C)nc2c1)C(=O)NO)C(C)(C)C
- pIC50 [1]: 9.68
- pIC50 [2]: 5.46

Compound: CNC(=O)[C@@H](NC(=O)C(CC(C)C)C(NS(=O)(=O)c1ccc(F)cc1Cl)C(=O)NO)C(C)(C)C (single isomer, unassigned)
- pIC50 [1]: 8.01

Compound: CNC(=O)[C@@H](NC(=O)C(CC(C)C)C(NS(=O)(=O)c1ccccc1)C(=O)NO)C(C)(C)C (single isomer, unassigned)
- pIC50 [1]: 8.82
- pIC50 [2]: 5.89

Compound: CNC(=O)[C@@H](NC(=O)[C@H](CC(C)C)[C@H](NS(=O)(=O)c1cccc2c(=O)[nH]cnc12)C(=O)NO)C(C)(C)C
- pIC50 [1]: 8.47
- pIC50 [2]: 5.31

Compound: CNC(=O)[C@@H](NC(=O)[C@H](CC(C)C)[C@H](Sc1ccc(F)cc1Cl)C(=O)NO)C(C)(C)C
- pIC50 [1]: 8.96
- pIC50 [2]: 4.96

Compound: CNC(=O)[C@H](Cc1ccccc1)NC(=O)[C@H](CC(C)C)[C@H](CSc1ccccc1)C(=O)NO
- pIC50 [1]: 8.74
- pIC50 [2]: 5.28

Compound: CNC(=O)[C@@H](NC(=O)[C@H](CC(C)C)[C@H](NS(C)(=O)=O)C(=O)NO)C(C)(C)C
- pIC50 [1]: 8.66
- pIC50 [2]: 5.80

Compound: CNC(=O)[C@@H](NC(=O)[C@H](CC(C)C)[C@H](NS(=O)(=O)c1c(C(C)C)cc(C(C)C)cc1C(C)C)C(=O)NO)C(C)(C)C
- pIC50 [1]: 7.89

Compound: CNC(=O)[C@@H](NC(=O)C(CC(C)C)C(NCc1ccccc1)C(=O)NO)C(C)(C)C (single isomer, unassigned)
- pIC50 [1]: 8.55
- pIC50 [2]: 5.21

Compound: CNC(=O)[C@@H](NC(=O)C(CC(C)C)C(C(=O)NO)N(Cc1ccccc1)S(=O)(=O)c1cccc2cccnc12)C(C)(C)C (single isomer, unassigned)
- pIC50 [1]: 7.07

Compound: CNC(=O)[C@@H](NC(=O)[C@H](CC(C)C)[C@H](Sc1ccccc1)C(=O)NO)C(C)(C)C
- pIC50 [1]: 6.73

Compound: CNC(=O)[C@@H](NC(=O)[C@H](CC(C)C)[C@H](OC)C(=O)NO)C(C)(C)C
- pIC50 [1]: 8.82
- pIC50 [2]: 5.30

Compound: CNC(=O)[C@@H](NC(=O)[C@H](CC(C)C)[C@H](Sc1ccc(OC)c(OC)c1)C(=O)NO)C(C)(C)C
- pIC50 [1]: 8.92

Compound: CCCN([C@H](C(=O)NO)[C@@H](CC(C)C)C(=O)N[C@H](C(=O)NC)C(C)(C)C)S(=O)(=O)c1cccc2cccnc12
- pIC50 [1]: 8.00

Compound: CNC(=O)[C@@H](NC(=O)[C@H](CC(C)C)[C@H](SC)C(=O)NO)C(C)(C)C
- pIC50 [1]: 8.80
- pIC50 [2]: 5.64

Compound: CNC(=O)[C@@H](NC(=O)[C@H](CC(C)C)[C@H](Sc1cccc(C(C)(C)C#N)c1)C(=O)NO)C(C)(C)C
- pIC50 [1]: 8.80
- pIC50 [2]: 5.55

Compound: CNC(=O)[C@@H](NC(=O)[C@H](CC(C)C)[C@H](NC(=O)c1ccc2ncccc2c1)C(=O)NO)C(C)(C)C
- pIC50 [1]: 8.02

Compound: CNC(=O)[C@@H](NC(=O)[C@H](CC(C)C)[C@H](Sc1ccc(S(C)(=O)=O)cc1)C(=O)NO)C(C)(C)C
- pIC50 [1]: 8.90
- pIC50 [2]: 5.68

Compound: CNC(=O)[C@@H](NC(=O)[C@H](CC(C)C)[C@H](OCc1cccc2nccnc12)C(=O)NO)C(C)(C)C
- pIC50 [1]: 8.96
- pIC50 [2]: 5.12

Compound: CNC(=O)[C@@H](NC(=O)[C@H](CC(C)C)[C@H](OCc1cc2ccccc2n(C)c1=O)C(=O)NO)C(C)(C)C
- pIC50 [1]: 9.36
- pIC50 [2]: 5.63

Compound: CNC(=O)[C@@H](NC(=O)[C@H](CC(C)C)[C@H](Sc1ccc(C#N)cc1)C(=O)NO)C(C)(C)C
- pIC50 [1]: 9.20
- pIC50 [2]: 5.48

Compound: CNC(=O)[C@@H](NC(=O)[C@H](CC(C)C)[C@H](NS(=O)(=O)CCc1ccncc1)C(=O)NO)C(C)(C)C
- pIC50 [1]: 8.89
- pIC50 [2]: 6.15

Compound: CNC(=O)[C@@H](NC(=O)[C@H](CC(C)C)[C@H](NS(=O)(=O)c1ccc2ccccc2c1)C(=O)NO)C(C)(C)C
- pIC50 [1]: 9.18
- pIC50 [2]: 5.92

Compound: CNC(=O)[C@@H](NC(=O)C(CC(C)C)C(NS(=O)(=O)c1ccc(NC(C)=O)cc1)C(=O)NO)C(C)(C)C (single isomer, unassigned)
- pIC50 [1]: 8.89
- pIC50 [2]: 5.92

Compound: CNC(=O)[C@@H](NC(=O)C(CC(C)C)C(NC(C)=O)C(=O)NO)C(C)(C)C (single isomer, unassigned)
- pIC50 [1]: 7.89
